The values that follow come from publication PMC5566978, “Human Leukocyte Antigen (HLA)-DRB1*15:01 and HLA-DRB5*01:01 Present Complementary Peptide Repertoires” (Frontiers in Immunology, 2017).

Where no end group is shown, it is not given here.

Assay [1] addresses recombinant DR2b (DRA1*01:01/DRB1*15:01) (Homo sapiens, UniProt P01903+P01911). The experiment in a line: Competition peptide-binding assay to recombinant DR2b. Conditions: competition with 1 µM biotinylated modified GAD555-567 peptide, wells coated with HLA-DR2b, europium-streptavidin time resolved fluorescence. How it is done: (§1) The experimental affinity of different peptides to HLA-DR molecules was determined as previously described ([31]). Briefly, recombinant DR2b (DRA1*01:01/DRB1*15:01) and DR2a (DRA1*01:01/DRB5*01:01) proteins were used for peptide-binding assays. Increasing concentrations of each non-biotinylated test peptide were incubated in competition with 1 µM of the biotinylated GAD555-567 peptide ([…], modified from […] to bind to DRB1*15:01 and DRB5*01:01 in a single unambiguous register) in wells coated with HLA-DR2a or HLA-DR2b. After washing, residual biotinylated reference peptide was labeled using europium conjugated streptavidin (Perkin Elmer) and quantified using a Victor3 D time resolved fluorometer (Perkin Elmer). Peptide-binding curves were simulated by non-linear regression with Prism Software (version 4.03, GraphPad Software Inc.) using a sigmoidal dose–response curve. IC50 binding values were calculated from the resulting curves as the peptide concentration needed for 50% inhibition of reference peptide binding. Equivalent amounts of purified HLA-DR protein were plated on each plate, but similar amounts of total protein can have different levels of activity. Thus, different preparations of protein frequently give different levels of maximum counts (presumably based on differences in purity and the proportion of the protein that is functional). Indeed differences between different preparations of the same HLA-DR protein can be observed.
(§2) Figure 4 Experimental binding affinity of peptides sequenced from MGAR and (A) Binding to DR2a or (B) Binding to DR2b. Increased concentration of the peptides were incubated in wells coated with recombinant human leukocyte antigen (HLA)-DR2a or HLA-DR2b in competition with 1 µM biotinylated modified GAD555-567 peptide ([…], modified from […] to bind to DRB1*15:01 and DRB5*01:01 in a single unambiguous register) to generate binding curves. After washing, residual biotinylated reference peptide was labeled using europium-conjugated streptavidin and quantified. The Y-axis depicts raw europium counts, which is proportional to the amount of residual biotinylated peptide that remains bound to HLA class II. White-filled symbols represent peptides eluted from DR2a. Black-filled symbols represent peptides eluted from DR2b.

In assay [2] the target is recombinant DR2a (DRA1*01:01/DRB5*01:01) (Homo sapiens, UniProt P01903+Q30154). Kind of assay: Competition peptide-binding assay to recombinant DR2a. The conditions noted are these: competition with 1 µM biotinylated modified GAD555-567 peptide, wells coated with HLA-DR2a, europium-streptavidin time resolved fluorescence. As for the experimental part:
as §1, §2

Take ELEELRAEQQRLKSQDL: the half-inhibitory concentration (IC50) (usually the concentration needed to halve the response being measured) in assay [1] is more than 50 µM.
As to LEEFGRFASFEAQG, the concentration for half-maximal inhibition (IC50) in assay [1] and in assay [2] was more than 50 µM each time.
As for LEEFGRFASFEAQGA, the IC50 in assay [1] and in assay [2] was more than 50 µM each time.
With LPSEKAIFLFVDKTVPQS, in assay [2], the “BINDING IC50 DR2a” value was “non-detectable affinity” and the half-inhibitory concentration (IC50) was more than 50 µM.
Take QKKEIHLYQTFVVQ: the IC50 in assay [1] and in assay [2] was more than 50 µM each time.
For QKKEIHLYQTFVVQL, the 50% inhibitory concentration (IC50) in assay [1] and in assay [2] was more than 50 µM in each case.
Take QKKEIHLYQTFVVQLQDPR: the IC50 in assay [1] and in assay [2] was more than 50 µM each time.
Take QKKEIHLYQTFVVQLQDPREP: the IC50 in assay [1] and in assay [2] was more than 50 µM throughout.
With QTKEFQVLKSLGKLAMG, the IC50 in assay [1] is more than 50 µM.
On to SQAEFEKAAEEVRHL, for which the results for the half-maximal inhibitory concentration (IC50) in assay [1] and in assay [2] were more than 50 µM and 5.8 µM, respectively.
